# Data reported in US12071411B2, “Inhibitors of HIF-2α and methods of use thereof” (ARCUS BIOSCIENCES, INC., priority 2021, dated 2024).
# pIC50: −log10 of the molar value.
# Columns and labels:
# [1] = target: T1, HIF-2α (Homo sapiens, UniProt Q99814); experiment: HIF-2α Luciferase Reporter Assay (serum free) in HIF-Luc-786-0 cells; type: cell-based; settings: Opti-MEM, 786-0 reporter cells, 20 hours incubation
# How it was run: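 786-0 cells stably transduced with HIF luciferase reporter, 20,000 cells/well in serum-free Opti-MEM, compounds (50 uM downward, 1% DMSO) 20 h at 37 °C. ONE-Glo luminescence normalized to DMSO and no-cell controls; IC50 from four-parameter fit.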
# [2] = target: T2, Biotin tagged HIF-2α protein containing PAS-B domain (240-350) (Homo sapiens, UniProt Q99814); experiment: HIF-2α Scintillation Proximity Assay (SPA) binding assay; settings: 50 nM HIF-2α protein, 25 nM 3H-tracer, 2% DMSO
# T2 construct: Biotin tagged HIF-2α protein containing PAS-B domain (240-350) was prepared and purified in-house; made in house
# Method: HIF-2α Scintillation Proximity Assay (SPA) Binding Assay:
# Biotin tagged HIF-2α protein containing PAS-B domain (240-350) was prepared and purified in-house.
# Compounds solubilized in DMSO were dispensed into a white 384-well polystyrene non-binding flat clear bottom plate (Greiner Bio-One, Cat #781903) using an HP D300 dispenser. Ten microliters of biotinylated HIF-2α protein in buffer (25 mM Tris-HCl, pH 7.4, 150 mM NaCl, 0.15% BSA and 0.001% Tween 20) was added to the compound wells and allowed to incubate for 1 hour at room temperature. Ten microliters of SPA bead mix were added to the wells and incubated for an additional 45 minutes, followed by 10 ul of ^3H-tracer solution. Final assay conditions comprised 50 nM HIF-2α protein, 25 nM radiolabeled tracer and 3 ug beads per well with compounds in 2% DMSO. The plate was read using a MicroBeta Microplate Counter (PerkinElmer) for luminescence detection. The IC50 values of the test compounds were determined from compound dose response curves fitted using a standard four parameter fit equation and are reported in Table 2.
# [3] = target: T1, HIF-2α; experiment: HIF-2α Luciferase Reporter Assay (serum), HRE-luciferase 786-0 cells in 100% human serum; type: cell-based; settings: for pIC50: 100% human serum, 786-0 reporter cells, overnight incubation, read-out: Serum Potency; for Serum Shift (approximate): ratio of IC50 in 100% serum to IC50 in serum free conditions
# How it was run: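 786-0 cells stably expressing an HRE-luciferase reporter were plated and rested 3 h. They were then treated overnight at 37 °C with compound diluted in 100% human serum. Serum was replaced with Opti-MEM, ONE-Glo luminescence was read, and IC50 came from a 4-parameter logistic fit.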
# T1 sequence (Q99814 whole entry): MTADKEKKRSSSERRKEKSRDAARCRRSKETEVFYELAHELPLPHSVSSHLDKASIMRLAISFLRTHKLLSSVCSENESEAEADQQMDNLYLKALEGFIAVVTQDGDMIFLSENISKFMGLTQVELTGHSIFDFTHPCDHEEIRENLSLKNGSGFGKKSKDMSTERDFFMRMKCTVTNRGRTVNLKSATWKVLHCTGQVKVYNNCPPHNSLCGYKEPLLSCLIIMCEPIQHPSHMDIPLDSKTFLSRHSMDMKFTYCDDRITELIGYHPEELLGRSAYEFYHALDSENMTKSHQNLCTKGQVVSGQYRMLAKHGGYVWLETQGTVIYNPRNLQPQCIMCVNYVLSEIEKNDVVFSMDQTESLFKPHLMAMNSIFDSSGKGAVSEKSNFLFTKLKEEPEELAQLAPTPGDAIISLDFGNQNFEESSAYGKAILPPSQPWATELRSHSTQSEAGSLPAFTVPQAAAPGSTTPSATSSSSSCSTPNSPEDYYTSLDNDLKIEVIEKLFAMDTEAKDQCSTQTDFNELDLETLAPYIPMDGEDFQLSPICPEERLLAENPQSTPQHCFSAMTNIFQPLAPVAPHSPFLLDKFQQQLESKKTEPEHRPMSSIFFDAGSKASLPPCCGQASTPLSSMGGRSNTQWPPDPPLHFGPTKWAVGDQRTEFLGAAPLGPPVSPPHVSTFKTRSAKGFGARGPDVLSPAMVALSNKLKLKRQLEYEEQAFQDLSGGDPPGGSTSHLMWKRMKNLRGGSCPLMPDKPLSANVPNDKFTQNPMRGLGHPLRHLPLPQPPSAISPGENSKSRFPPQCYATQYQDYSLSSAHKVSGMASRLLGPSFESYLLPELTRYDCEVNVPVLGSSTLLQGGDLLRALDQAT
# T2 sequence (Q99814 240-350): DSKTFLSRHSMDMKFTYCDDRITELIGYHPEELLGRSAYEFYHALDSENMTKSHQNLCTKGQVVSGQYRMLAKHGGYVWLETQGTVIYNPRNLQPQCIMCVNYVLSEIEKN
SMILES,pIC50 [1],pIC50 [2],pIC50 [3],Serum Shift (approximate) [3]
"O[C@H]1c2c(C(F)(F)F)nn(C[C@H]3C[C@H](F)C3)c2CCC1(F)F [Example 45, (4S)-5,5-difluoro-1-[(3-fluorocyclobutyl)methyl]-3-(trifluoromethyl)-6,7-dihydro-4H-indazol-4-ol]",< 6.00,6.00 to 7.00,–,–
"CC(C#N)CCn1nc(C(F)(F)F)c2c1CCC(F)(F)[C@H]2O (stereo partly drawn) [Example 3, 4-[(4S)-5,5-difluoro-4-hydroxy-3-(trifluoromethyl)-6,7-dihydro-4H-indazol-1-yl]-2-methylbutanenitrile]",6.00 to 7.00,6.00 to 7.00,6.00 to 7.00,1
"O[C@H]1c2c(C(F)(F)F)nn(CC3CC3)c2CCC1(F)F [Example 10, (4S)-1-(cyclopropylmethyl)-5,5-difluoro-3-(trifluoromethyl)-6,7-dihydro-4H-indazol-4-ol]",< 6.00,< 6.00,–,–
"CO[C@H]1c2c(C(F)(F)F)nn(CCCC(F)(F)F)c2CCC1(F)F [Example 47, (4S)-5,5-difluoro-4-methoxy-1-(4,4,4-trifluorobutyl)-3-(trifluoromethyl)-6,7-dihydro-4H-indazole]",< 6.00,< 6.00,–,–
"O[C@H]1c2c(C(F)(F)F)nn(CCOC3CC3(F)F)c2CCC1(F)F (stereo partly drawn) [Example 25, (4S)-1-[2-(2,2-difluorocyclopropoxy)ethyl]-5,5-difluoro-3-(trifluoromethyl)-4,5,6,7-tetrahydro-1H-indazol-4-ol]",< 6.00,< 6.00,–,–
"COCCCn1nc(C(F)(F)F)c2c1CCC(F)(F)[C@H]2O [Example 9, (4S)-5,5-difluoro-1-(3-methoxypropyl)-3-(trifluoromethyl)-6,7-dihydro-4H-indazol-4-ol]",< 6.00,< 6.00,–,–
"O[C@H]1c2c(C(F)(F)F)nn([C@H]3CC[C@H](C(F)(F)F)CC3)c2CCC1(F)F [Example 37, (4S)-5,5-difluoro-3-(trifluoromethyl)-1-[4-(trifluoromethyl)cyclohexyl]-6,7-dihydro-4H-indazol-4-ol]",< 6.00,< 6.00,–,–
"CC(CCn1nc(S(C)(=O)=O)c2c1CCC(F)(F)[C@H]2O)C(F)(F)F (stereo partly drawn) [Example 50, (4S)-5,5-difluoro-3-methylsulfonyl-1-(4,4,4-trifluoro-3-methylbutyl)-6,7-dihydro-4H-indazol-4-ol]",< 6.00,< 6.00,–,–
"O[C@H]1c2c(C(F)(F)F)nn(CCCC(F)(F)F)c2CC[C@@H]1F [Example 52, (4S,5S)-5-fluoro-1-(4,4,4-trifluorobutyl)-3-(trifluoromethyl)-4,5,6,7-tetrahydroindazol-4-ol]",6.00 to 7.00,–,< 6.00,7

# Results, then the compound that gave them:
pIC50 [1],pIC50 [2],pIC50 [3],Serum Shift (approximate) [3],SMILES
6.00 to 7.00,6.00 to 7.00,< 6.00,7,"CC(CCn1nc(C#N)c2c1CCC(F)(F)[C@H]2O)C(F)(F)F (stereo partly drawn) [Example 49, (4S)-5,5-difluoro-4-hydroxy-1-(4,4,4-trifluoro-3-methylbutyl)-6,7-dihydro-4H-indazole-3-carbonitrile]"
> 7.00,> 7.00,6.00 to 7.00,5,"O[C@H]1c2c(C(F)(F)F)nn(CCSC(F)(F)F)c2CCC1(F)F [Example 7, (4S)-5,5-difluoro-3-(trifluoromethyl)-1-[2-(trifluoromethylsulfanyl)ethyl]-6,7-dihydro-4H-indazol-4-ol]"
> 7.00,6.00 to 7.00,6.00 to 7.00,10,"CC(F)(F)CCn1nc(C(F)(F)F)c2c1CCC(F)(F)[C@H]2O [Example 32, (4S)-1-(3,3-difluorobutyl)-5,5-difluoro-3-(trifluoromethyl)-6,7-dihydro-4H-indazol-4-ol]"
> 7.00,> 7.00,6.00 to 7.00,7,"O[C@H]1c2c(C(F)(F)F)nn(CCC3CC3(F)F)c2CCC1(F)F (stereo partly drawn) [Example 20, (4S)-1-[2-(2,2-difluorocyclopropyl)ethyl]-5,5-difluoro-3-(trifluoromethyl)-4,5,6,7-tetrahydro-1H-indazol-4-ol]"
6.00 to 7.00,6.00 to 7.00,< 6.00,9,"O[C@H]1c2c(C(F)(F)F)nn(CCC(F)(F)F)c2CCC1(F)F [Example 33, (4S)-5,5-difluoro-3-(trifluoromethyl)-1-(3,3,3-trifluoropropyl)-6,7-dihydro-4H-indazol-4-ol]"
6.00 to 7.00,6.00 to 7.00,–,–,"O[C@H]1c2c(C(F)(F)F)nn(C3CCC(F)(F)CC3)c2CCC1(F)F [Example 36, (4S)-1-(4,4-difluorocyclohexyl)-5,5-difluoro-3-(trifluoromethyl)-6,7-dihydro-4H-indazol-4-ol]"
6.00 to 7.00,6.00 to 7.00,< 6.00,7,"O[C@H]1c2c(C(F)(F)F)nn(CCCC(F)F)c2CCC1(F)F [Example 31, (4S)-1-(4,4-difluorobutyl)-5,5-difluoro-3-(trifluoromethyl)-6,7-dihydro-4H-indazol-4-ol]"
6.00 to 7.00,6.00 to 7.00,< 6.00,22,"OC(CCn1nc(C(F)(F)F)c2c1CCC(F)(F)[C@H]2O)C(F)(F)F (stereo partly drawn) [Example 16, (4S)-5,5-difluoro-1-(4,4,4-trifluoro-3-hydroxybutyl)-3-(trifluoromethyl)-6,7-dihydro-4H-indazol-4-ol]"
> 7.00,> 7.00,6.00 to 7.00,3,"O[C@H]1c2c(C(F)(F)F)nn(CCC3CC3(F)F)c2CC1(F)F (stereo partly drawn) [Example 58, (4S)-1-[2-(2,2-difluorocyclopropyl)ethyl]-5,5-difluoro-3-(trifluoromethyl)-4,6-dihydrocyclopenta[c]pyrazol-4-ol]"
6.00 to 7.00,6.00 to 7.00,< 6.00,3,"O[C@H]1c2c(C(F)(F)F)nn(CCC3(F)COC3)c2CCC1(F)F [Example 21, (4S)-5,5-difluoro-1-[2-(3-fluorooxetan-3-yl)ethyl]-3-(trifluoromethyl)-4,5,6,7-tetrahydro-1H-indazol-4-ol]"
6.00 to 7.00,6.00 to 7.00,< 6.00,31,"CC(C)CCn1nc(C(F)(F)F)c2c1CCC(F)(F)[C@H]2O [Example 40, (4S)-5,5-difluoro-1-(3-methylbutyl)-3-(trifluoromethyl)-6,7-dihydro-4H-indazol-4-ol]"
6.00 to 7.00,6.00 to 7.00,6.00 to 7.00,2,"O=S1(=O)CC(Cn2nc(C(F)(F)F)c3c2CCC(F)(F)[C@H]3O)C1 [Example 46, (4S)-1-[(1,1-dioxothietan-3-yl)methyl]-5,5-difluoro-3-(trifluoromethyl)-6,7-dihydro-4H-indazol-4-ol]"
6.00 to 7.00,–,< 6.00,>41,"O[C@H]1c2c(C(F)(F)F)nn([C@@H]3CCC[C@@H](C(F)(F)F)C3)c2CC1(F)F [Example 80, (4S)-5,5-difluoro-3-(trifluoromethyl)-1-[(1R)-3-(trifluoromethyl)cyclohexyl]-1H,4H,5H,6H-cyclopenta[c]pyrazol-4-ol]"
